# Tests used:
# [1] = biological target: T1, S. clavuligerus expandase (Streptomyces clavuligerus, UniProt P18548); experiment: Penicillin ring expansion by cell-free S. clavuligerus expandase extracts, paper disc-agar diffusion bioassay; type: biochemical; conditions: 4 mg/ml extract protein; for Ring expansion, size of zones of inhibition: 2 mg/ml substrate (penicillin mX and octanoyl-6-APA 3 mg/ml), 2 hours; for Inhibition Zone Diameter: 2 hours of reaction, 250 μl in bioassay (E. coli ESS, penicillinase)
# T1 construct: endogenous in cells; host or cells: S. clavuligerus mutant NP1, crude cell-free extract
# T1 sequence (P18548 whole entry, the tested form may be a part): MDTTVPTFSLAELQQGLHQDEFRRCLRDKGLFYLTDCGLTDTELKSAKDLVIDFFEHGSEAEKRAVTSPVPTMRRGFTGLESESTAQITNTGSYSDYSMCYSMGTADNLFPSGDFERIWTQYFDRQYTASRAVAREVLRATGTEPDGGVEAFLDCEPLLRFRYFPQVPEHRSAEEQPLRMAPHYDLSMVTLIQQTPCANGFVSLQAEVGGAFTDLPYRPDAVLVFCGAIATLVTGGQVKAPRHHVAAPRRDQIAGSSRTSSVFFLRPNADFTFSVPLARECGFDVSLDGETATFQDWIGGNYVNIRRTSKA
# Procedure: Preparation of Cell-free Extracts: Fermentation broths were centrifuged at 8,000×g and 4° C. for 10 min. Pellets were washed twice using 50 mM Tris-HCI supplemented with 0.1 mM dithiothreitol (DTT). The cells were resuspended in the same buffer and disrupted by four 25-sec. sonication treatments (power setting 5 and duty cycle 50%), in an ice-water bath using a Branson 350 sonifier (Branson Sonic Power Co., Danbury, Conn.). Cell debris was removed by centrifugation (14,000×g, 30 min., 4° C.). The resulting extracts containing 8-10 mg protein/ml were placed on ice and utilized immediately. Protein concentrations were measured using the Bio-Rad protein assay (Bio-Rad, Hercules, Calif.). Bovine serum albumin was used as standard.
# Ring Expansion Reaction: We defined ring expansion reaction conditions as modifications of the standard reaction mixture for expandase reactions described by Maeda et al. (Maeda et al., Enzyme Microb. Technol. 17:231-34, 1995) except that penicillin G was used a substrate instead of penicillin N. Additions were made following the order established by Shen et al. (Shen et al., Enzyme Microb. Technol. 6:402-404, 1984. Reaction mixtures were incubated in test tubes (cell-free extract) or 250 ml baffled flasks (resting cells) at 220 rpm, 30° C. Reactions containing the protein extract were stopped at various times (see Table 1 and Figure Legends) by mixing 0.5 ml of assay solution with 0.5 ml of methanol. In the case of resting cells, samples were centrifuged to remove cells and supernatants were transferred to new tubes. Expandase activity was detected by paper disc-agar diffusion bioassay.
# Detection of Expandase Activity: As mentioned above, expandase activity was detected by assaying production of a growth-inhibitory zone in a paper disc-agar diffusion bioassay. Paper discs were saturated with 200 μl of the reaction mixture (cell-free extracts or supernatant (resting cells) as follows. Two discs were superimposed and four 50 μl samples were applied. After each application, the discs were allowed to dry for 20 min at 37° C. under a laminar hood and, finally, they were placed on LB (1% tryptone, 0.5% NaCl, 0.5% yeast extract, 0.1% glucose) 0.8% agar medium seeded with E. coli ESS (a β-lactam supersensitive mutant), and the plates were incubated overnight at 37° C. The formation of DAOG and/or other cephalosporin(s) was determined by including 50,000 IU/ml of penicillinase (Difco Bacto penase concentrate, Difco Laboratories, Detroit, Mich.) in the assay plates. This penicillinase is a narrow spectrum β-lactamase that attacks penicillins but not cephalosporins. The diameters of zones of growth inhibition were measured and quantified with a calibration curve using DAOG as standard.
# Ring Expansion of Other Penicillins by Cell-free Extracts: We tested our reaction conditions for their ability to support ring expansion on other penicillin substrates and found detectable expansion with each of the 15 substrates that we tested. […] The reactions contained 4 mg/ml extract (protein concentration), 50 mM Tris-HCl pH 7.4, 1.8 mM FeSO4, 1.28 mM α-ketoglutarate, 8 mM MgSO4, 8 mM KCl, 4 mM ascorbic acid, 14 mM DTT, and 2 mg/ml substrate (except for penicillin mX and octanoyl-6-APA, which were used at 3 mg/ml). Samples were centrifuged at 12K rpm for 5 minutes after 2 hours of reaction. 250 μl of reaction mixture was used in each bioassay.
# [2] = test system: S. clavuligerus or C. acremonium expandase enzymes; conditions: cited from earlier work; for in vitro substrate: suggested by Baldwin et al. 1987, subsequent work failed to confirm; for ability to expand: in vitro (Bowers 1984; Baldwin 1987; Shibata 1996)
# [3] = biological target: T1, S. clavuligerus expandase; conditions: literature reports (Jensen 1982; Dotzlaf 1989; Yeh 1994; Maeda 1995); cited from earlier work
# [4] = biological target: T2, expandase from S. clavuligerus (Streptomyces clavuligerus, UniProt P18548); experiment: Ring expansion by cell-free extracts of S. lividans transformant pHJ11 (Example 7); type: biochemical; conditions: pHJ11 cell-free extract 6 mg/ml protein, substrate 5.6 mM, after 4 h of reaction
# T2 construct: made in house; host or cells: S. lividans 1326 transformed with pHJ11, crude cell-free extract
# T2 sequence (P18548 whole entry): as the sequence (P18548 whole entry, the tested form may be a part) above
# Procedure: (§1) Microorganism, Medium and Culture Conditions: S. lividans 1326 was used in all experiments. Cultures were grown in 250 ml baffled flasks containing 40 ml of MST medium. Each flask was inoculated with 50 μl of a spore suspension (prepared and stored at −80° C. in 20% glycerol) and incubated at 30° C., 250 rpm, for 48 h.
# (§2) Plasmids: The plasmid pUL702-202a was a gift from J. F. Martin (University of León, Spain). This vector harboured a 4.3 Kb BglII fragment containing the epimerase and expandase genes from Nocardia lactamdurans inserted at the BglII site on pIJ702. The plasmid pHJ11 was constructed by cloning a 3 Kb BglII fragment containing the expandase gene from S. clavuligerus 3585 into pIJ702 at the BglII site.
# (§3) Ring Expansion Reaction: The ring expansion mixture contained 1.8 mM FeSO4, 1.28 mM α-ketoglutarate, 6 mg/ml protein (cell-free extract), 8 mM KCl, 8 mM MgSO4, 14 mM DTT and 50 mM TrisHCl (pH 7.4) in a final volume of 2.5 ml. Substrate concentration was 5.6 mM. Additions were made following the order established by Shen et al. (Enzyme Microb. Technol. 6:402-404, 1984). Reaction mixtures were incubated in test tubes at 220 rpm, 30° C. At different times, 0.5 ml samples were taken and the reaction was stopped by adding 0.5 ml of methanol. […] Biotransformation activity was detected by paper disc-agar diffusion bioassay. […]
# [5] = biological target: T3, expandase from N. lactamdurans (Amycolatopsis lactamdurans, UniProt Q03047); experiment: Ring expansion by cell-free extracts of S. lividans containing pUL702-202a (Example 7); type: biochemical; conditions: S. lividans pUL702-202a cell-free extract 6 mg/ml protein, substrate 5.6 mM
# T3 construct: made in house; host or cells: S. lividans 1326 transformed with pUL702-202a, crude cell-free extract
# T3 sequence (Q03047 whole entry): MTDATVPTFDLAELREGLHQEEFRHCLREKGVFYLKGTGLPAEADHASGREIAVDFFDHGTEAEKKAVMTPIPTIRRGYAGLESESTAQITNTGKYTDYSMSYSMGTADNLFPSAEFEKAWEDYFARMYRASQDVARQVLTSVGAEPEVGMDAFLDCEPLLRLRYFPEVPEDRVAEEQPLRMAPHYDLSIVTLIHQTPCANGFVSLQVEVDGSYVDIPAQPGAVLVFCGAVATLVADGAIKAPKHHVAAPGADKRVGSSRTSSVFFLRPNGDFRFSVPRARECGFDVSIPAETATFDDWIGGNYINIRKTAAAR
# Procedure: as §1, §2, §3
# [6] = biological target: T4, C. acremonium expandase (Hapsidospora chrysogena, UniProt P11935); conditions: cited from earlier work; for ring expansion: partially purified enzyme (Kupka et al. 1983); for substrate for expandase activity: crude extracts (Kohsaka et al. 1976; Demain et al.)
# T4 sequence (P11935 1-332): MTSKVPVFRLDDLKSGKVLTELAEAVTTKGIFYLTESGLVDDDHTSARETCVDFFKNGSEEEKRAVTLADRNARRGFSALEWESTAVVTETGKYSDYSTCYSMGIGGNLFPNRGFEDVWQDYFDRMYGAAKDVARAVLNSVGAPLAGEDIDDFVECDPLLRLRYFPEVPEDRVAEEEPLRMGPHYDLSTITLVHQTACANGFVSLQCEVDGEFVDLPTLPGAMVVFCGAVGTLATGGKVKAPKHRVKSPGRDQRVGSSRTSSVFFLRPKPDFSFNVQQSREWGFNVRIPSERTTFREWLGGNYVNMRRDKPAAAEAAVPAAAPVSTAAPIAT
Compound,"Ring expansion, size of zones of inhibition [1]",Inhibition Zone Diameter ([1]; 2 mg/ml substrate),ring expansion [3],also measured
"CCCCCCCCC(=O)NC1C(=O)N2C1SC(C)(C)C2C(=O)O (stereo not shown) [Nonanoyl-6-APA, nonanoyl-6-APA]",smaller zones,10.5 mm,,
glutamyl-6-APA,,,,in vitro substrate [2]: at very low levels
CCCCCCCC(=O)N[C@@H]1C(=O)N2[C@@H]1SC(C)(C)[C@@H]2C(=O)O [penicillin K],,,not,
"CC1(C)S[C@@H]2[C@H](NC(=O)[C@H](N)c3ccccc3)C(=O)N2[C@H]1C(=O)O [Ampicillin, ampicillin]",intermediate size zones,17 mm,not,production of cephalosporins [4]: about 1.5 μg/ml; ring expansion [5]: expansion was only observed when penicillin G was used as substrate; ring expansion [6]: does not expand
CC1(C)S[C@@H]2[C@H](NC(=O)Cc3cccc(C(=O)O)c3)C(=O)N2[C@H]1C(=O)O [m-carboxyphenylacetyl-6-APA],,,not,in vitro substrate [2]: at very low levels
D-carboxymethylcysteinyl-6-APA,,,,ability to expand [2]: some ability
"CC1(C)SC2C(NC(=O)Cc3cccs3)C(=O)N2C1C(=O)O (stereo not shown) [2-Thiophenylacetyl-6-APA, 2-thiophenylacetyl-6-APA]",Large zones of inhibition,32 mm,,
"CCCCCCCCCC(=O)NC1C(=O)N2C1SC(C)(C)C2C(=O)O (stereo not shown) [Decanoyl-6-APA, decanoyl-6-APA]",smaller zones,7 mm,,
CC1(C)S[C@@H]2[C@H](NC(=O)CCC[C@@H](N)C(=O)O)C(=O)N2[C@H]1C(=O)O [penicillin N],,,expands the ring,substrate for expandase activity [6]: substrates
"CC1(C)S[C@@H]2[C@H](NC(=O)CCCCC(=O)O)C(=O)N2[C@H]1C(=O)O [Adipyl-6-APA, adipyl-6-APA]",intermediate size zones,20 mm,not,ability to expand [2]: some ability; ring expansion [6]: does not expand
"CC1(C)S[C@@H]2[C@H](NC(=O)COc3ccccc3)C(=O)N2[C@H]1C(=O)O [Penicillin V, penicillin V]",smaller zones,7.5 mm,not,
D-glutamyl-6-APA,,,not,in vitro substrate [2]: at very low levels
"CCCCCC(=O)NC1C(=O)N2[C@@H]1SC(C)(C)[C@@H]2C(=O)O (stereo partly shown) [Hexanoyl-6-APA, hexanoyl-6-APA]",intermediate size zones,19.5 mm,,
"CC/C=C/CC(=O)N[C@@H]1C(=O)N2[C@@H]1SC(C)(C)[C@@H]2C(=O)O [Penicillin F, penicillin F]",intermediate size zones,21 mm,,
"CCCCCCCC(=O)N[C@@H]1C(=O)N2[C@@H]1SC(C)(C)[C@@H]2C(=O)O [Octanoyl-6-APA, octanoyl-6-APA]",intermediate size zones,,,Inhibition Zone Diameter ([1]; 3 mg/ml substrate): 16 mm
"CCCC(=O)NC1C(=O)N2C1SC(C)(C)C2C(=O)O (stereo not shown) [Butyryl-6-APA, butyryl-6-APA]",intermediate size zones,17.5 mm,not,
"CCCCC(=O)NC1C(=O)N2[C@@H]1SC(C)(C)[C@@H]2C(=O)O (stereo partly shown) [Valeryl-6-APA, valeryl-6-APA]",intermediate size zones,15 mm,,
"CCCCCCC(=O)NC1C(=O)N2[C@@H]1SC(C)(C)[C@@H]2C(=O)O (stereo partly shown) [Heptanoyl-6-APA, heptanoyl-6-APA]",intermediate size zones,16.5 mm,,
CCCCCC(=O)N[C@@H]1C(=O)N2[C@@H]1SC(C)(C)[C@@H]2C(=O)O [penicillin dihydroF],,,not,
"CC1(C)S[C@@H]2[C@H](NC(=O)Cc3ccc(O)cc3)C(=O)N2[C@H]1C(=O)O [Penicillin X, penicillin X]",Large zones of inhibition,30.5 mm,,
CC1(C)S[C@@H]2[C@H](N)C(=O)N2[C@H]1C(=O)O [6-aminopenicillanic acid],,,,substrate for expandase activity [6]: not

# From patent US6383773B2, “Penicillin conversion” (Massachusetts Institute of Technology, priority 1998, dated 2002)
